Reference: patent US11884708B2, “Stapled peptide inhibitors of nemo as potential anti-inflammatory and anti-cancer drugs” (INSTITUT PASTEUR, priority 2015, dated 2024)
Where a SMILES comes first, the peptide text is derived from it. Bridges are numbered along the chain shown (N, C = ends). [ ]: non-standard residue; d: D form. The star is where a group is joined. Succinimide(1-Et,3-yl) = CCN1C(=O)CC(*)C1=O; R8 = C=CCCCCCC[C@@](C)(N)C(=O)O; S5 = C=CCCC[C@](C)(N)C(=O)O; Cbz = O=C(OCc1ccccc1)*; CH2F = FC*

Key:
[1] = system: 70Z3-C3 cells; experiment: Cellular uptake of BODIPY-labeled peptides by FACS; format: cell-based; settings: 2 h incubation, flow cytometry
[2] = system: HLY1 (ABC-DLBCL, MALT1 independent); experiment: Cell death assay (CellTiter-Blue resazurin); format: cell-based, human; settings: for cell death: HLY1, 7 h; for EC50: Homo sapiens
Description: (§1) The CellTiter-Blue® Cell Viability kit assay purchased from Promega was used to assess the cell death induced by NEMO stapled peptides in ABC- and GCB-DLBCL cell lines. […] Cells were considered 100% death when the fluorescence intensity value was the same as the one with the medium alone or with the cells treated with the cycloheximide protein synthesis inhibitor at 25 μM (Sigma Aldrich).
(§2) For each time point measurement 100 μl of cell samples were withdrawn at different incubation times (7 h, 24 h and 48 h) and subjected to resazurin assay for one hour at 37° C. in the CO2 incubator by adding and mixing for 10 sec 20 μl of resazurin. Fluorescence measurements were performed with a TECAN infinite F500 instrument at 560 nm excitation wavelength and 590 nm emission wavelength. Viability of cells at time 0 was determined just before adding compound and all experiments were performed in duplicate.
(§3) The percentage of cell death was calculated according to the following formula: (1−((RFUobs−blank)/(RFU100% viability−blank))*100), where RFUobs corresponds to the cells viability observed in the presence of compound, RFU100% viability, the initial cells viability and blank the background fluorescence measured using the medium alone.
(§4) The EC50 value was calculated by plotting the percentage of cell death as function of the compound concentration and fitting the experimental curve with the following formula: (A*P0)/(EC50+P0), where A is the amplitude of fluorescence, P0 is the peptide concentration.
(§5) To compare the inhibition efficiency of BA-UBI-SAHND306-Q313 with IKK inhibitors (MLN120B, MedChem Express) or IKKα/β inhibitor (TPCA1, R&D systems), 25,000 DLBCL cells (OCI-Ly3) were incubated for 7 h with an increasing concentration of IKK inhibitors ranging from 0 to 50 μM, and the amount of cell death was then determined using CellTiter-Blue® Cell Viability kit assay. For the MI-2 MALT1 inhibitor (Fontan et al., 2012, Cancer cell 22, 812-824), similar experiments were carried out in MALT dependent (OCI-Ly3) and independent (HLY1) DLBCL cells using a 0-25 μM range.

[3] = system: OCI-Ly3 (ABC-DLBCL, MALT1 dependent); experiment: Cell death assay (CellTiter-Blue resazurin); format: cell-based, human
Description: as §1, §2, §3, §4, §5

[4] = system: OCI-Ly7 (GCB-DLBCL); experiment: Cell death assay (CellTiter-Blue resazurin); format: cell-based, human; settings: OCY-Ly7, no constitutive NF-κB activation
Description: as §1, §2
as §3, with “alone. […]” for “alone.”

[5] = target: T1, IKKα (Homo sapiens, UniProt O15111); settings: reported; cited from earlier work
T1 sequence (O15111 1-745): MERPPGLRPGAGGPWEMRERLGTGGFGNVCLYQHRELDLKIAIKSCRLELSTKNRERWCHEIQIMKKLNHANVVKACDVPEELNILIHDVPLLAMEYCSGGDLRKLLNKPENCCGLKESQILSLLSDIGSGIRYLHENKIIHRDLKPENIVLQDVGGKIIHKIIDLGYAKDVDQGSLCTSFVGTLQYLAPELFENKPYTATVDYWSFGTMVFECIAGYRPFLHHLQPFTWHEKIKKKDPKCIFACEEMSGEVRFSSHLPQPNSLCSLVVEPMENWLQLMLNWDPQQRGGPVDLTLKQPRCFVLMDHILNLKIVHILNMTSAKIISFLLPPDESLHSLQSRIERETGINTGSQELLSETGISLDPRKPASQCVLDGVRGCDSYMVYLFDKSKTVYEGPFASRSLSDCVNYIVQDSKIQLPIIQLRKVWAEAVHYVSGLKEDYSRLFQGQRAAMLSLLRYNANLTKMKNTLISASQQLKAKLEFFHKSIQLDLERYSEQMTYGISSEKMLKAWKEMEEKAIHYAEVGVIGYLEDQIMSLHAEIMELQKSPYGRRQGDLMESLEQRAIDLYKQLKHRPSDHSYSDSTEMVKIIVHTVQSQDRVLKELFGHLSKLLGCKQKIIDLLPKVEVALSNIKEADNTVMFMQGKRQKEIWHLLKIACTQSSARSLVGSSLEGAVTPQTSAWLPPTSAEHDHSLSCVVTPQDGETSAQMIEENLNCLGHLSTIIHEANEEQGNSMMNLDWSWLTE

[6] = system: OCI-Ly3 DLBCL cells; experiment: Protection from cell death induced by NEMO stapled inhibitor by apoptosis and necroptosis inhibitors; format: cell-based, human; settings: OCY-Ly3 pre-treated with inhibitor, then A-UBI-SAHND306-Q313
Description: Ferrostatin-1, an inhibitor of ferroptosis (Sigma Aldrich) was used at 25 μM, the mixture of pepstatin-A and E64D (Sigma Aldrich), inhibitors of lysosomal cathepin D and cathepsin B, respectively, at 25 μM each and Cyclosporin A (Sigma Aldrich), a CypD inhibitor, at 25 μM. In all experiments, the effect of different DMSO concentration on cell viability was measured and taken into account, and fluorescence background was measured using cell free medium containing inhibitors.

With CC[C@H](C)[C@H](NC(=O)[C@H](CCCCN)NC(=O)[C@@H](NC(=O)[C@H](CCC(N)=O)NC(=O)[C@H](CCCNC(=N)N)NC(=O)[C@H](CSC1CC(=O)N(CC)C1=O)NC(C)=O)[C@@H](C)CC)C(=O)N[C@@H](Cc1c[nH]c2ccccc12)C(=O)N[C@@H](Cc1ccccc1)C(=O)N[C@@H](CCC(N)=O)C(=O)N[C@@H](CC(N)=O)C(=O)N[C@@H](CCCNC(=N)N)C(=O)N[C@@H](CCCNC(=N)N)C(=O)N[C@@H](CCSC)C(=O)N[C@@H](CCCCN)C(=O)N[C@@H](Cc1c[nH]c2ccccc12)C(=O)N[C@@H](CCCCN)C(=O)N[C@@H](CCCCN)C(=O)N[C@@H](CC(C)C)C(=O)N[C@@H](CCCCN)C(=O)N[C@@H](C)C(=O)N[C@@H](CCC(N)=O)C(=O)N[C@@H](C)C(=O)N[C@]1(C)CCCCCCC=CCCC[C@@](C)(C(=O)N[C@@H](C)C(=O)N[C@@H](CCC(=O)O)C(=O)N[C@@H](CCCNC(=N)N)C(=O)N[C@@H](Cc2c[nH]cn2)C(=O)N[C@@H](C)C(=O)N[C@@H](CCCNC(=N)N)C(=O)N[C@@H](CCC(=O)O)C(=O)N[C@@H](CCCCN)C(N)=O)NC(=O)[C@H](Cc2ccccc2)NC(=O)[C@H](CCCNC(=N)N)NC(=O)[C@H](C)NC(=O)[C@H](CCCCN)NC(=O)[C@H](Cc2ccc(O)cc2)NC(=O)[C@H]([C@@H](C)CC)NC1=O (some centres unmarked) [A-UBI-SAHN D306-Q313] (Ac-C(Succinimide(1-Et,3-yl))RQIKIWFQNRRMKWKKLKAQA[R8]IYKARF[S5]AERHAREK-NH2; staple 23-30) the “intracellular delivery at 4° C. lower than at 37° C.” value [1] was 58%, the “more potent than ML120B” value ([2]; HLY1) was 70 × and the cell death [2] was 100%. The “times more potent than ML120B IKKβ inhibitor” value ([3]; OCI-Ly3) was “about 50 times”, the EC50 ([3]; OCI-Ly3, 7 h) was 2.6 ± 0.5 µM and the cell death ([3]; OCI-Ly3, 7 h) was 100%. For the same compound, the “cell death, in words” value [4] was “no cell death”.
In the case of NC(=O)Nc1sc(-c2ccc(F)cc2)cc1C(N)=O [TPCA-1], the cell death ([3]; OCI-Ly3, 7 h) is given as “no significant additional effect” and the IC50 [5] is given as 0.4 µM.
With CC(C)S(=O)(=O)c1ccc2nccc(Nc3ccc4scnc4c3)c2c1 [GSK872] the “protection to cell death induced by NEMO stapled inhibitor, in words” value [6] was “significantly rescued”.
With COc1nccnc1NS(=O)(=O)c1ccc(NC(=O)/C=C/c2ccc([N+](=O)[O-])s2)cc1 [NSA, necrosulfonamide] the “protection to cell death induced by NEMO stapled inhibitor, in words” value [6] was “significantly rescued”.
For COC(=O)C[C@H](NC(=O)[C@H](C)NC(=O)[C@@H](NC(=O)OCc1ccccc1)C(C)C)C(=O)CF [Z-VAD-fmk] (Cbz-Val-Ala-Asp(OMe)-CH2F), the “protection to cell death induced by NEMO stapled inhibitor, in words” value [6] was “did not provide any protection”.
In the case of CN1C(=O)C(Cc2c[nH]c3ccccc23)NC1=S (centres unmarked) [Nec1, necrostatin-1], the “protection to cell death induced by NEMO stapled inhibitor, in words” value [6] is reported as “totally prevent”.
With COc1c(Cl)cc2c([nH]c3cnccc32)c1NC(=O)c1cccnc1C [MLN120B] the cell death [2] was “No cell death”, the EC50 ([2]; HLY1, 24 h) was 70 ± 2 µM and the EC50 ([2]; HLY1, 48 h) was 78 ± 2 µM. For the same compound, the EC50 ([3]; Homo sapiens, OCI-Ly3, 48 h) was 125 ± 10 µM and the cell death ([3]; OCI-Ly3, 48 h) was 52%.
For COCCOc1nc(-c2ccc(Cl)c(Cl)c2)n(-c2ccc(NC(=O)CCl)cc2)n1 [MI-2], the cell death [2] was “more resistant” and the EC50 ([3]; OCI-Ly3, 7 h) was 2.5 ± 0.05 µM.
